Results: US9701677B2, “Fused pyrimidine compounds” (Gilead Sciences, Inc., priority 2014, dated 2017)
Where two headings read alike, the source gives them in different places.

What was measured:
Format in all cases: cell-based
[1] = system: HIV-1 reverse transcriptase mutant Y181C; test: High throughput cytopathic effect assay in MT-4 cells, Y181C mutant; settings: for EC50: Human immunodeficiency virus 1, MT4, 120 h, read-out: MT4 EC50 (nM) against Y181C; for FC against mutant Y181C: fold change of EC50, Y181C versus w.t. assay 2
Source text: (§1) Compounds were screened in a miniaturized, high throughput cytopathic effect assay for activity against HIV-1 HBX2 (wild type) and HIV-1 reverse transcriptase mutants K103N and Y181C. In Tables 1 and 2 below, “w.t.” refers to results of the tested compounds run with the wildtype 1 and “w.t. assay 2” refers results of the tested compounds run with the wildtype on the same day as the testing of the compounds with the mutants. Thus, “w.t. assay 2” was run under the same conditions as the testing of the compounds with the mutants and provides a direct comparison with the results from the testing with the mutants.
(§2) Ten-point serial dilutions of compounds with half-log step size were generated in DMSO. AZT (5 μM) was used as the positive control and DMSO as the negative control. The Echo acoustic dispenser was used to deliver 200 nL of serially diluted compound into sterile 384 well tissue culture assay plates. Two million MT-4 cells were incubated with each of the 3 viruses at MOI of 0.0005 in separate 1 mL infection tubes for 1 hour at 37° C. The cells were diluted in cell culture medium (RPMI+10% FBS) to 50,000 cells/mL. The infected cells were added to 384 well assay plates containing serially dilute compounds. Assay plates were incubated for 5 days in a humidified incubator set at 37° C. and 5% CO2. To measure the cytopathic effect of HIV, 40 μL Cell TiterGlo was added to each well and the resulting luminescence signal is read with the Envision plate reader (Perkin Elmer). Data were normalized to positive and negative controls in each plate and expressed as % CPE Protection. […]

[2] = system: HIV-1 reverse transcriptase mutant K103N; test: High throughput cytopathic effect assay in MT-4 cells, K103N mutant; settings: for EC50: Human immunodeficiency virus 1, MT4, 120 h, read-out: MT4 EC50 (nM) against K103N; for FC against mutant K103N: fold change of EC50, K103N versus w.t. assay 2
Source text: as §1, §2

HIV-1 HBX2 (wild type) = test: High throughput cytopathic effect assay in MT-4 cells, wild type HIV-1
Source text: as §1, §2

hERG channels = molecular target: T1, hERG channels (Homo sapiens, UniProt Q12809); test: hERG assay, whole cell recordings in CHO cell line stably expressing hERG channels; settings: CHO cells expressing hERG, tail current, Table 3
T1 construct: host or cells: CHO cell line stably expressing hERG
T1 sequence (Q12809 whole entry): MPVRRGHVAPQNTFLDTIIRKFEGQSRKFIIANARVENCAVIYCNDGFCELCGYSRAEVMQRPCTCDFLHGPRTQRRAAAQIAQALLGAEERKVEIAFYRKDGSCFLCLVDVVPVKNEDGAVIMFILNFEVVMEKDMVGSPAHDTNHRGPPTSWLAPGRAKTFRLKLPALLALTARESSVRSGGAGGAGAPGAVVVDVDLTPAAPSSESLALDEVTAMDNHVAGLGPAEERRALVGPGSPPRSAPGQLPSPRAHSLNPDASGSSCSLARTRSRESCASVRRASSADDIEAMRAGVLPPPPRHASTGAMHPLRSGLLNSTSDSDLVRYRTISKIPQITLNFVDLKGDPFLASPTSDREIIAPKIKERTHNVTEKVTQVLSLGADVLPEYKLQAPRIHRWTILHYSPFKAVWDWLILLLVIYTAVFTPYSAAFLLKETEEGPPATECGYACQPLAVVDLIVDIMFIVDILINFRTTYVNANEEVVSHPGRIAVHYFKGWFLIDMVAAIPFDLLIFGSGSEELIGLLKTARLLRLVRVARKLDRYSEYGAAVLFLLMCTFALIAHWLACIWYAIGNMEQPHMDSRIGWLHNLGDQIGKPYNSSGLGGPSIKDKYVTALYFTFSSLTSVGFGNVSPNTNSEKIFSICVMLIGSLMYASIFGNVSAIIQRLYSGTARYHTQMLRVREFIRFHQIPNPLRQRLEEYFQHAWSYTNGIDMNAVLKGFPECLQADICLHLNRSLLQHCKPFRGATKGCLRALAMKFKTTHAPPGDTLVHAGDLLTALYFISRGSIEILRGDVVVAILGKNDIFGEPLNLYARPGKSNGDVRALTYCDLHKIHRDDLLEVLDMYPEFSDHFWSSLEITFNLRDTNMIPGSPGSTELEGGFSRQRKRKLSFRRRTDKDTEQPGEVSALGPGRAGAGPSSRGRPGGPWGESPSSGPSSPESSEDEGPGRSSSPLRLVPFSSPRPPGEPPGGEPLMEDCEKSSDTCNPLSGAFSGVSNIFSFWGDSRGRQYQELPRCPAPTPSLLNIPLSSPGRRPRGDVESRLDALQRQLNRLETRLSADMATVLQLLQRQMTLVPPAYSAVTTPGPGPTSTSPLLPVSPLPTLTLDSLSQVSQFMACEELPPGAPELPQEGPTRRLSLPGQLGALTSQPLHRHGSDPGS
Method: Cells were cultured in DMEM/F12 containing 10% FBS, 1% penicillin/streptomycin and 500 μg/ml G418. Before testing, cells were harvested using Accumax (Innovative Cell Technologies).
Cells were voltage clamped at a holding potential of −80 mV. The hERG current was then activated by a depolarizing step to −50 mV for 300 ms. This first step at −50 mV was used as a baseline for measuring peak amplitude of the tail current. Next, a voltage step to +20 mV was applied for 5 s to activate the channels. Finally, a step back to −50 mV for 5 s removed activation and the deactivating tail current was recorded.
Solutions were mixed by sonication for 20 min, followed by vigorous vortexing. Prior to testing, compounds were diluted to test concentrations in glass vials using External Solution. Dilutions were prepared no longer than 20 min prior to use.
External solution containing 0.1% DMSO (vehicle) was applied to the cells to establish a baseline. […] Test article solutions were added to cells in 4 separate additions. Cells were kept in test solution until effect of the test article reached steady state, to a maximum of 12 min. Next, 1 μM cisapride (positive control) was added. Finally, washout with External Solution was performed until the recovery current reached steady state.

[3] = Human immunodeficiency virus 1, MT4, 120 h, MT-4 cells, HIV-1 wild type, 5 days, CPE protection (Cell TiterGlo), read-out: MT4 EC50 (nM) against w.t.
[4] = Human immunodeficiency virus 1, MT4, read-out: MT4 EC50 (nM) against w.t. assay 2

Structure (SMILES) | EC50 [1] | FC against mutant Y181C [1] | EC50 [2] | FC against mutant K103N [2] | EC50 (HIV-1 HBX2 (wild type); [3]) | EC50 (HIV-1 HBX2 (wild type); [4]) | IC50 (hERG channels)
Cc1cc(/C=C/C#N)cc(C)c1-c1cncc2c(N)nc(Nc3ccc(C#N)cc3)nc12 [Compound 2, (E)-4-((4-Amino-8-(4-(2-cyanovinyl)-2,6-dimethylphenyl)pyrido[4,3-d]pyrimidin-2-yl)amino)benzonitrile] | 40.4 nM | 3.2 | 14.3 nM | 1.1 | 6.1 nM | 12.6 nM | 1700 nM
Cc1cc(/C=C/C#N)cc(C)c1-c1nccc2c(N)nc(Nc3ccc(C#N)cc3)nc12 [Compound 1, (E)-4-((4-Amino-8-(4-(2-cyanovinyl)-2,6-dimethylphenyl)pyrido[3,4-d]pyrimidin-2-yl)amino)benzonitrile] | 5.5 nM | 4.0 | 2.3 nM | 1.7 | 2.1 nM | 1.4 nM | 
Cc1cc(/C=C/C#N)cc(C)c1-c1ccnc2c(N)nc(Nc3ccc(C#N)cc3)nc12 [Compound 3, (E)-4-((4-amino-8-(4-(2-cyanovinyl)-2,6-dimethylphenyl)pyrido[3,2-d]pyrimidin-2-yl)amino)benzonitrile] |  |  |  |  | 4.6 nM |  | 
